Key:
[1] = Hygroscopicity study (storage at 90% RH, weighing and PXRD after five days); assay type: physicochemical; conditions: for PXRD (compared to intact bulk) / PXRD - overnight at ambient condition: after five days at 90% RH; for PXRD - overnight at ambient condition: then equilibrated at ambient temperature overnight; for Water uptake after 5 days: humidity chamber at 90% RH (BaCl2-2H2O), five days
Experimental: The salt samples are weighed into aluminum crucibles, placed onto a sample holder, and stored in the humidity chamber at 90% RH (BaCl2-2H2O). The samples are visually inspected with a hand magnifying lens and weighed on an analytical balance after five days. The samples are analyzed by PXRD after five days, then allowed to equilibrate at ambient temperatures overnight and re-analyzed by PXRD to evaluate stability of suspected hydrates under ambient conditions.

[2] = Solid-state stability study under 40° C./75% RH (HPLC remaining % and purity); assay type: physicochemical; conditions: 40° C./75% RH for 6 month; for Purity (Area %) Main peak: counterion area excluded
Experimental: HPLC data are obtained by Waters Alliance 2695 HPLC system with 2996 PDA detector using the following conditions; • Column: Inertsil ODS-3 (3 microm, 4.6×150 mm), • Eluent: acetonitrile/10 mM ammonium acetate=32/68, • Detection: UV at 215 nm, • Flow rate: 1 mL/min, and • Column temperature: 40° C.
Solid-state stability study is performed using Nagano Science Constant temperature/humidity control chamber LH-20-11M or LH-21-11M. The sample is placed in the chamber and exposed under 40° C./75% RH. The crystalline form and thermal behavior of the resultant sample after the exposure are evaluated by PXRD and TG/DTA, respectively. The remaining % and the purity are determined by HPLC measurement.

PXRD (compared to intact bulk) [1]	PXRD - overnight at ambient condition [1]	Water uptake after 5 days [1]	Assay Remaining % [2] [%]	Purity (Area %) Main peak [2] [Area %]	Compound
different from the intact bulk	no change	16.7 wt %	87	95.6	O=C(O)C1(CN2CCC(COc3noc4cccc(OCC(F)(F)F)c34)CC2)CCOCC1 [Free form, 4-{[4-({[4-(2,2,2-trifluoroethoxy)-1,2-benzisoxazol-3-yl]oxy}methyl)piperidin-1-yl]methyl}tetrahydro-2H-pyran-4-carboxylic acid]
–	–	more than 40 wt %	–	–	O=C([O-])C1(CN2CCC(COc3noc4cccc(OCC(F)(F)F)c34)CC2)CCOCC1.[Na+] [sodium salt, 4-{[4-({[4-(2,2,2-trifluoroethoxy)-1,2-benzisoxazol-3-yl]oxy}methyl)piperidin-1-yl]methyl}tetrahydro-2H-pyran-4-carboxylic acid sodium salt]
same	no change	–	99	99.9	Br.O=C(O)C1(CN2CCC(COc3noc4cccc(OCC(F)(F)F)c34)CC2)CCOCC1 [HBr-salt, 4-{[4-({[4-(2,2,2-trifluoroethoxy)-1,2-benzisoxazol-3-yl]oxy}methyl)piperidin-1-yl]methyl}tetrahydro-2H-pyran-4-carboxylic acid hydrobromide salt]
same	no change	–	98	99.7	Cc1ccc(S(=O)(=O)O)cc1.O=C(O)C1(CN2CCC(COc3noc4cccc(OCC(F)(F)F)c34)CC2)CCOCC1 [pTSA-salt, 4-{[4-({[4-(2,2,2-trifluoroethoxy)-1,2-benzisoxazol-3-yl]oxy}methyl)piperidin-1-yl]methyl}tetrahydro-2H-pyran-4-carboxylic acid p-toluenesulfonate salt]
same	no change	–	97	98.8	Cl.O=C(O)C1(CN2CCC(COc3noc4cccc(OCC(F)(F)F)c34)CC2)CCOCC1 [HCl-salt, 4-{[4-({[4-(2,2,2-trifluoroethoxy)-1,2-benzisoxazol-3-yl]oxy}methyl)piperidin-1-yl]methyl}tetrahydro-2H-pyran-4-carboxylic acid hydrochloride salt]

Compound	PXRD (compared to intact bulk) [1]	PXRD - overnight at ambient condition [1]	Water uptake after 5 days [1]	Assay Remaining % [2] [%]	Purity (Area %) Main peak [2] [Area %]
4-{[4-({[4-(2,2,2-trifluoroethoxy)-1,2-benzisoxazol-3-yl]oxy}methyl)piperidin-1-yl]methyl}tetrahydro-2H-pyran-4-carboxylic acid hemi-ethanedisulfonate salt [EDSA-salt]	same	no change	–	99	100.0

Reference: US9988370B2, “Benzisoxazole derivative salt” (RaQualia Pharma Inc., priority 2014, dated 2018)
